Test results reported in patent publication US20230313146A1, “INTESTINAL EPITHELIAL CELL CULTURES” (ARDELYX, INC., priority 2017, published 2023).

Assays:
Assay type in all cases: cell-based
[1] = system: human distal colonic cultures; test: Seeding media comparison in human distal colonic monolayer cultures (TEER, RNA profile); conditions: thiazovivin substituted for Y-27632 in the seeding media (WENRAT)
Experimental: Organoids were typically grown for 7-12 days before being used to plate monolayer cultures. Organoid cultures embedded in Matrigel were broken apart in growth media and pooled in a 15 mL conical tube. The cells were centrifuged at 600×g for 3 minutes and resuspended in TrypLE Express and placed in a water bath at 37° C. for 3 minutes. The cells were then removed and pipetted up and down for 7 minutes. BM was added to quench the reaction, and the cell suspension was centrifuged at 600×g for 3 minutes, resuspended in BM, and counted.
Media conditions used for murine colon growth and differentiation were optimized for human distal colon cultures using the water-absorption phenotype characteristic of this segment. The effects of seeding and differentiation media alterations on human distal colon cultures were determined by comparing two seeding medias (WENRAT or WENRNicAST) and three differentiation medias (WENR, ENRA, and ENR). […] Murine colonic growth media (WENR) was altered by removing Wnt3a (W) to generated ENR media, or by removing Wnt3a (W) and adding A83-01 (A) (ENRA). Removal of Wnt3a and addition of A83-01 was necessary for proper differentiation of water-absorbing cultures (FIG. 9B and FIG. 8). […] However, the inclusion of Nic and SB202190 in the WENRNicAST seeding media further suppressed differentiation of secretory cells in human colonic cultures (FIG. 10). […]

[2] = system: K^+ absorption in mouse distal colonic cultures; test: Mouse distal colon K+ transport screening assay
Experimental: Ion transport was determined by sampling the apical and basolateral chambers of the Transwell and analyzing these samples on an ion chromatography system (Thermo Fisher ICS-3000 or ICS-5000+) coupled with conductivity detectors. Chromatographic separation of cations was performed using an IonPac CS12A (Dionex) 2×250 mm analytical column with an isocratic elution using 25 mM methanesulfonic acid. Chromatographic separation of anions was performed using an IonPac AS18 (Dionex) 2×250 mm analytical column with an isocratic elution using 35 mM potassium hydroxide. Concentrations were calculated relative to a standard curve for each analyte ion based on retention time and peak area.
An assay was established to measure K^+ transport in mouse distal colonic cultures. Mouse distal colonic monolayer cultures were prepared in 96-well Transwells according to protocol and were used for assay on day 6, 7, or 8 depending on the TEER value of the culture and its water-absorption phenotype. Wells with a TEER value below 450 Ω·cm^2 were not used for assay. […]
To start the assay, 80 μL of apical media was added to triplicate wells per compound and 130 μL of basolateral media was added to the basolateral compartment. […] K^+ and rubidium ion concentrations were determined using ion chromatography. […]

[3] = system: mouse duodenal, jejunal, and ileal cultures; test: Differentiation of mouse small intestinal monolayer cultures (global gene expression PCC versus tissue, TEER)
Experimental: Approximately 1 μg of the entire isolated RNA was used to prepare each RNA sequencing library. RNA libraries were prepared using the TruSeq Stranded mRNA library preparation kit (Illumina). Most sequencing data were obtained using a NextSeq500 sequencer (Illumina) (2×75 bp, ˜ 30-40 million reads per sample) and some sequencing was performed using a HiSeq sequencer (Illumina) (2×125 bp, ˜ 25-30 million reads per sample). Transcript counts were obtained using the RNA Express application (RNA-Seq reads aligned with the STAR aligner) on the Illumina BaseSpace website.
Pearson correlation coefficients were determined in Microsoft Excel using the Pearson function comparing the transcript count correlation for all genes between two data sets.
On day 2, fresh W2.5ENRY was added to the cultures, and was replaced on day 4. Confluence of the culture was assessed by measuring the TEER. […]
Therefore, global gene expression by RNA sequencing was obtained for 36 culture conditions, taken 4, 6, and 8 days after seeding the cultures, and compared with the gene expression profiles of mouse jejunal villi and crypts. To simplify analysis and to account for changes in global gene expression rather than relying on a handful of marker genes, the Pearson correlation coefficient (PCC) was calculated for the relationship between the gene expression profiles of cultured cells and of mouse jejunal villus cells. […]

What does the source list for O=C(NCc1ccccc1)c1csc(Nc2ccncn2)n1 [thiazovivin]?
TEER of human colonic cultures [1]: higher TEER values; secretory cell differentiation [1]: some suppression of secretory cell differentiation

For [O]=[V]([O-])([O-])[O-] [vanadate], which “block of K^+ absorption” value ([2]; 200 μM vanadate, mouse distal colonic cultures) is on record?
Its value is “block K^+ absorption completely”.

And the “Inhibition of K^+ absorption normalized to the mean value of vanadate controls (mean±SD)” value ([2]; vanadate controls, 200 μM, value of 1 = inhibition equivalent to vanadate)?
The value was 1.00±0.15.

B1: BMP 4: mouse BMP-4 (Peprotech), bone morphogenetic protein used as differentiation promoting factor (protein, UniProt P21275 293-408, looked up)
Bone morphogenetic protein 4: SPKHHPQRSRKKNKNCRRHSLYVDFSDVGWNDWIVAPPGYQAFYCHGDCPFPLADHLNSTNHAIVQTLVNSVNSSIPKACCVPTELSAISMLYLDEYDKVVLKNYQEMVVEGCGCR
How did the “correlation of gene expression of cultures with tissues in the jejunum and ileum (PCC)” value ([3]; 300 ng/mL, dose titration of individual BMPs) turn out when B1 was run?
The value was “strong correlations of gene expression”.

What about the “effectiveness at differentiating mouse duodenal, jejunal, and ileal cultures” value ([3]; compared with the BMP mixture (BMP 2, 4, and 7)) of the same molecule?
The value was “as effective as the BMP mixture”.
